Structures can show the parent of a compound that is named as a salt. Where two headings read alike, the source gives them in different places.
Columns and labels:
male Swiss Webster mice [1] = assay: Warm-water tail immersion assay, agonism (single dose screen and potency); type: in vivo, mouse; conditions: single dose 10 mg/kg s.c., 20 min
MOR [2] = molecular target: T1, MOR (Mus musculus, UniProt P42866); conditions: percent of DAMGO; MOR functional activity first published; cited from earlier work
KOR [3] = molecular target: T2, KOR (Mus musculus, UniProt P33534); assay: [35S]-GTPγS functional assay, KOR; type: biochemical; conditions: for Emax: percent of U50,488 full agonist control
T2 construct: expressed in transfected cells; membrane homogenate

MOR [4] = molecular target: T1, MOR; assay: Competitive radioligand binding assay, MOR; set-up: expressed in transfected cells; membrane homogenate; conditions: [3H]naloxone, mMOR-CHO membranes; for Ki: read-out: radioligand binding affinity (Ki, nM) MOR
DOR [5] = molecular target: T3, DOR (Homo sapiens, UniProt P41143); assay: [35S]-GTPγS functional assay, DOR; type: biochemical; conditions: hDOR-CHO membranes
T3 construct: expressed in transfected cells; membrane homogenate

KOR [6] = molecular target: T2, KOR; assay: Competitive radioligand binding assay, KOR; conditions: [3H]diprenorphine, mKOR-CHO membranes
DOR [7] = molecular target: T3, DOR; assay: Competitive radioligand binding assay, DOR; conditions: [3H]diprenorphine, hDOR-CHO membranes; read-out: radioligand binding affinity (Ki, nM) DOR
[8] = system: male and female Sprague–Dawley rats; conditions: intravenous, FR5 schedule of reinforcement, 2 h sessions
DOR [9] = molecular target: T3, DOR; conditions: read-out: radioligand binding affinity (Ki, nM) DOR; [3H]diprenorphine; cited from earlier work
male Swiss Webster mice [10] = assay: Warm-water tail immersion assay, time course study; type: in vivo, mouse; conditions: 0.1 mg/kg s.c.
male Swiss Webster mice [11] = assay: Locomotor activity assay; type: in vivo, mouse; conditions: s.c., 30 min session
Protocol: This hypolocomotion could result in false positives in assays of evoked antinociception such as WWTI.[115] Thus, a locomotor activity assay was utilized to assess this end point in accordance with previous studies.[28] In brief, the day prior to testing, mice were placed in the open field chamber for acclimation. On the test day, they were injected with compounds 21, 23, NLF, or vehicle and immediately placed back into the open field chamber. Photo beam breaks then recorded the mouse’s locomotion over a 30 min test period.
Six open field activity chambers (Med Associates, St. Albans, VT) were used in the locomotor activity study. Each chamber is located inside a sound-attenuating cubicle (Med Associates) and is equipped with a ventilation system. The interior of the chamber consists of a 27 × 27 cm plexiglass enclosure wired with photobeam cells and connected to a computer console that monitors the activity of the animal.
The day before the experiment, mice were acclimated to the activity chambers for a period of 30 min. On the day of the experiment, mice were administered vehicle or test compound s.c., placed into the activity chambers immediately and activity was monitored and recorded for a period of 30 min.
The primary dependent measures are total (1) distance traveled (cm), (2) ambulatory counts, (3) vertical counts, and (4) average speed (cm/s) within the 30 min session. Data are shown as mean ± SEM. Data were compared using one-way or two-way ANOVA as appropriate and a significant ANOVA was followed by a Dunnet’s post hoc test as appropriate. Statistical significance was defined as p < 0.05.

male Swiss Webster mice [12] = conditions: warm-water tail immersion; cited from earlier work
male Swiss Webster mice [13] = assay: Warm-water tail immersion assay, receptor selectivity study; type: in vivo, mouse
hERG = hERG (Homo sapiens, UniProt Q12809); conditions: read-out: hERG IC50; cited from earlier work
male Swiss Webster mice [14] = conditions: 0.1 mg/kg; cited from earlier work
[15] = same conditions; cited from earlier work
male Swiss Webster mice [16] = assay: Warm-water tail immersion assay, antagonism of morphine; type: in vivo, mouse; conditions: s.c. 5 min prior to morphine

Cl.O=C(CCc1ccoc1)N[C@H]1CC[C@@]2(O)[C@H]3Cc4ccc(O)c5c4[C@@]2(CCN3CC2CC2)[C@H]1O5 [Compound 6, 17-Cyclopropylmethyl-3,14β-dihydroxy-4,5α-epoxy-6α-[3′-(furan-3″-yl)propanamido]morphinan Hydrochloride]
antinociception compared to the vehicle group (male Swiss Webster mice [1]): lack of significant antinociceptive effect
[35S]-GTPγS functional activity MOR Emax (%) (MOR [2]): 27.62 ± 1.96%
Emax (KOR [3]): 80.3 ± 4.73%
radioligand binding affinity (Ki, nM) MOR (MOR [4]): subnanomolar
Ki (MOR [4]): 0.44 ± 0.1 nM

Cl.O=C(CCc1ccoc1)N[C@@H]1CC[C@@]2(O)[C@H]3Cc4ccc(O)c5c4[C@@]2(CCN3CC2CC2)[C@H]1O5 [Compound 8, 17-Cyclopropylmethyl-3,14β-dihydroxy-4,5α-epoxy-6β-[3′-(furan-3″-yl)propanamido]morphinan Hydrochloride]
antinociception compared to the vehicle group (male Swiss Webster mice [1]): lack of significant antinociceptive effect
[35S]-GTPγS functional activity MOR Emax (%) (MOR [2]): above 40%
Emax (KOR [3]): 95.9 ± 1.43%
radioligand binding affinity (Ki, nM) MOR (MOR [4]): subnanomolar
Ki (MOR [4]): 0.21 ± 0.01 nM

Cl.O=C(CCc1ccco1)N[C@@H]1CC[C@@]2(O)[C@H]3Cc4ccc(O)c5c4[C@@]2(CCN3CC2CC2)[C@H]1O5 [Compound 16, 17-Cyclopropylmethyl-3,14β-dihydroxy-4,5α-epoxy-6β-[3′-(furan-2″-yl)propanamido]morphinan Hydrochloride]
antinociception compared to the vehicle group (male Swiss Webster mice [1]): lack of significant antinociceptive effect
EC50 (DOR [5]): 16.8 ± 2.96 nM
[35S]-GTPγS functional activity MOR Emax (%) (MOR [2]): above 40%
radioligand binding affinity (Ki, nM) KOR (KOR [6]): subnanomolar
Ki (KOR [6]; read-out: radioligand binding affinity (Ki, nM) KOR): 0.61 ± 0.07 nM
EC50 (KOR [3]; mKOR-CHO membranes): 1.62 ± 0.12 nM
Ki (DOR [7]): 33 ± 3.58 nM
radioligand binding affinity (Ki, nM) MOR (MOR [4]): subnanomolar
Ki (MOR [4]): 0.28 ± 0.02 nM

CN(C(=O)/C=C/c1ccoc1)[C@@H]1CC[C@@]2(O)[C@H]3Cc4ccc(O)c5c4[C@@]2(CCN3CC2CC2)[C@H]1O5.Cl [NLF, Nalfurafine, reference compound]
reinforcing effect (number of infusions earned versus saline) [8]: did not function as a reinforcer
Ki (DOR [9]): 116 ± 20.9 nM
antinociceptive effects significant until (time postinjection) (male Swiss Webster mice [10]): 1 h
return to the baseline postinjection (male Swiss Webster mice [10]): 9 h
locomotor activity (male Swiss Webster mice [11]): slight dose-dependent trends for decreased locomotion
average speed by time versus vehicle (male Swiss Webster mice [11]; Figure 6F–H): significantly different from vehicle
potency ED50 [95% CI] mg/kg (male Swiss Webster mice [12]): 0.046 [0.016–0.126] mg/kg
antagonism of antinociceptive effects by nor-BNI (KOR antagonist) pretreatment (male Swiss Webster mice [13]; 10 mg/kg nor-BNI s.c. 24 h prior to 0.1 mg/kg test compound s.c. (23 also 0.05 mg/kg)): significantly lower
antagonism of antinociceptive effects by β-FNA (MOR antagonist) pretreatment (male Swiss Webster mice [13]; 10 mg/kg β-FNA s.c. 24 h prior to 0.1 mg/kg test compound s.c.): not antagonized by β-FNA
antagonism of antinociceptive effects by NTI (DOR antagonist) pretreatment (male Swiss Webster mice [13]; 15 mg/kg NTI s.c. 30 min prior to 0.1 mg/kg test compound s.c. (23 also 0.05 mg/kg)): significantly lower
antagonism of antinociceptive effects by NTI and nor-BNI pretreatment together (male Swiss Webster mice [13]; nor-BNI 10 mg/kg + NTI 15 mg/kg s.c. prior to test compound): did not result in a more drastic decrease than either antagonist alone

CN(C(=O)/C=C/c1ccoc1)[C@H]1CC[C@@]2(O)[C@H]3Cc4ccc(O)c5c4[C@@]2(CCN3CC2CC2)[C@H]1O5.Cl [NMF]
Ki (DOR [9]): 0.64 ± 0.11 nM
IC50 (hERG): 6.7 µM
potency ED50 [95% CI] mg/kg (male Swiss Webster mice [12]): 0.037 [0.014–0.096] mg/kg
duration of antinociceptive effects (male Swiss Webster mice [14]): 1 h
half-life in rat liver S9 fraction [15]: 10 min

C=CCN1CC[C@]23c4c5ccc(O)c4O[C@H]2C(=O)CC[C@@]3(O)[C@H]1C5 [naloxone, Naloxone HCl]
blockade of morphine antinociception (male Swiss Webster mice [16]): sufficiently antagonized morphine antinociception

Source: article PMC11181328 (Journal of Medicinal Chemistry, 2024)
